{"source": "ChEMBL document CHEMBL4052662", "about": "“Synthesis, docking study and neuroprotective effects of some novel pyrano[3,2-c]chromene derivatives bearing morpholine/phenylpiperazine moiety” (Bioorg Med Chem, 2017)", "key": {"Acetylcholinesterase [1]": {"target": "T1, Acetylcholinesterase (Electrophorus electricus, UniProt O42275)", "T1 sequence (O42275 whole entry)": "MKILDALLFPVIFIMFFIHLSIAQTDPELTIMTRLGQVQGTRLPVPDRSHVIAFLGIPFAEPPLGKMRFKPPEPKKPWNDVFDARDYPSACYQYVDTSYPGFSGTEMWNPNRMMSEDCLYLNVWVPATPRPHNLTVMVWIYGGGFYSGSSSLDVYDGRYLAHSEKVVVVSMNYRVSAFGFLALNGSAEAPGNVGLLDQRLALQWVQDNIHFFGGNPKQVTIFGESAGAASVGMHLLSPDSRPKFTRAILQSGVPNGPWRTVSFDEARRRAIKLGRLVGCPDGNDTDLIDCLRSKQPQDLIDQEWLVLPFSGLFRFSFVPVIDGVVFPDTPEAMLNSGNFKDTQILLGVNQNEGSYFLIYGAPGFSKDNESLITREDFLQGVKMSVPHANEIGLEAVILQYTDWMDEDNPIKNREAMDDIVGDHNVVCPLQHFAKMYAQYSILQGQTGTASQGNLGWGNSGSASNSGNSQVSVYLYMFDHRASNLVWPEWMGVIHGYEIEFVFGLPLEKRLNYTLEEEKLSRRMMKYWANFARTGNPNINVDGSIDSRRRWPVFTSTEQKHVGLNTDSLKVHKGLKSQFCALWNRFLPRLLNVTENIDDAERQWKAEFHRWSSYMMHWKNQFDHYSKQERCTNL", "assay": "Inhibition of electric eel AChE using acetylthiocholine iodide as substrate measured for 6 mins by Ellman's method"}, "[2]": {"assay": "Selectivity index, ratio of IC50 for equine serum BuChE to IC50 for electric eel AChE"}, "Cholinesterase": {"target": "Cholinesterase (Equus caballus, UniProt P81908)", "sequence (P81908 whole entry)": "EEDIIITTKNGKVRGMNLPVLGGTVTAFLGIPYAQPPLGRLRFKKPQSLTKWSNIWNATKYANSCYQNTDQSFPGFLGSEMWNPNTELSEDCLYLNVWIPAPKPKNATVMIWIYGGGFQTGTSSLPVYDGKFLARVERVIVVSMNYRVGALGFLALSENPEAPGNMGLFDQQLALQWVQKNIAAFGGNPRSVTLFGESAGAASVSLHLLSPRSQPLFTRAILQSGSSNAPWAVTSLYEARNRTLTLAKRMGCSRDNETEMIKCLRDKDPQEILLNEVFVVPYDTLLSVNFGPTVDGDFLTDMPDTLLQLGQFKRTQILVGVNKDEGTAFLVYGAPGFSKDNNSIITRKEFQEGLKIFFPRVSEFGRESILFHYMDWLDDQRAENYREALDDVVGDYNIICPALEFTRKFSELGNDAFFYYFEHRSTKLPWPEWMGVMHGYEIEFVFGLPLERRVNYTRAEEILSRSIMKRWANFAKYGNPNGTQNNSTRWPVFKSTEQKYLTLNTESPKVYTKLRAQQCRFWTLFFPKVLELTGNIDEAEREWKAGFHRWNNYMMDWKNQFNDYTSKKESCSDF", "assay": "Inhibition of equine serum BuChE using butyrylthiocholine iodide as substrate measured for 6 mins by Ellman's method"}, "PC-12": {"tested_on": "PC-12", "assay": "Neuroprotective activity against H2O2-induced cell death in rat PC12 cells assessed as cell viability 10 uM pretreated for three hours followed by H2O2 induction after 12 hrs by MTT assay relative to control", "format": "functional"}, "[3]": {"target": "Beta-secretase 1 (Homo sapiens) (UniProt P56817)", "sequence (P56817 whole entry)": "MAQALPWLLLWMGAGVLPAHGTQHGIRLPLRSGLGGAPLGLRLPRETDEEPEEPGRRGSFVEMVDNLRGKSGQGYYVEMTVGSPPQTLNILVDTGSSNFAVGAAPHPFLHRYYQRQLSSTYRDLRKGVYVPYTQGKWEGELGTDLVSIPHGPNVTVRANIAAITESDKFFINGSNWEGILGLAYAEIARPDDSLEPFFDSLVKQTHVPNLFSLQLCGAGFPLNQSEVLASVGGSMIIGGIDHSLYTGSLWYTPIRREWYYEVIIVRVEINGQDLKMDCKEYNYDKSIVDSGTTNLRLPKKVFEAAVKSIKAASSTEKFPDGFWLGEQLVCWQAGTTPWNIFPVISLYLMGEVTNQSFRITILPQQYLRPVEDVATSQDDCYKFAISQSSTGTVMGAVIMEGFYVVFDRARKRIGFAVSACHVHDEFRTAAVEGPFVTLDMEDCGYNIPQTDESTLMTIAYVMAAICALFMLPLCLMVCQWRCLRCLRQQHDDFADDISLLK", "assay": "Inhibition of human BACE1 using Rh-EVNLDAEFK-quencher as substrate measured after 60 mins by FRET assay"}, "Acetylcholinesterase [4]": {"target": "T1, Acetylcholinesterase", "assay": "Mixed-type inhibition of electric eel AChE using varying levels of acetylthiocholine iodide as substrate measured for 2 mins by Lineweaver-Burk plot analysis"}}}
{"compound": "N#CC1=C(NC(=O)CN2CCN(c3ccccc3)CC2)Oc2c(c(=O)oc3ccccc23)C1c1ccccc1", "note": "(configuration not stated)", "values": [{"measurement": "IC50", "setting": "Acetylcholinesterase [1]; read-out: IC50", "result": 11.5, "unit": "µM"}, {"measurement": "Ratio IC50", "setting": "[2]", "result": 4.5}, {"measurement": "IC50", "setting": "Cholinesterase; read-out: IC50", "result": 52.3, "unit": "µM"}]}
{"compound": "N#CC1=C(NC(=O)CN2CCN(c3ccccc3)CC2)Oc2c(c(=O)oc3ccccc23)C1c1ccc([N+](=O)[O-])cc1", "note": "(configuration not stated)", "values": [{"measurement": "IC50", "setting": "Acetylcholinesterase [1]", "result": "Nd(Insoluble)"}, {"measurement": "IC50", "setting": "Cholinesterase", "result": "Nd(Insoluble)"}]}
{"compound": "N#CC1=C(NC(=O)CN2CCOCC2)Oc2c(c(=O)oc3ccccc23)C1c1cccs1", "note": "(configuration not stated)", "values": [{"measurement": "IC50", "setting": "Acetylcholinesterase [1]; read-out: IC50", "result": "> 100", "unit": "µM"}, {"measurement": "IC50", "setting": "Cholinesterase; read-out: IC50", "result": "> 100", "unit": "µM"}]}
{"compound": "COc1ccc(C2C(C#N)=C(NC(=O)CN3CCOCC3)Oc3c2c(=O)oc2ccccc32)cc1OC", "note": "(configuration not stated)", "values": [{"measurement": "Activity", "setting": "PC-12", "result": 84.7, "unit": "%"}, {"measurement": "IC50", "setting": "Acetylcholinesterase [1]; read-out: IC50", "result": 3.25, "unit": "µM"}, {"measurement": "Ratio IC50", "setting": "[2]", "result": 10.5}, {"measurement": "IC50", "setting": "Cholinesterase; read-out: IC50", "result": 34.2, "unit": "µM"}]}
{"compound": "COc1ccc(C2C(C#N)=C(NC(=O)CN3CCOCC3)Oc3c2c(=O)oc2ccccc32)cc1", "note": "(configuration not stated)", "values": [{"measurement": "Activity", "setting": "PC-12", "result": 78.5, "unit": "%"}, {"measurement": "IC50", "setting": "Acetylcholinesterase [1]; read-out: IC50", "result": 2.05, "unit": "µM"}, {"measurement": "Ratio IC50", "setting": "[2]", "result": 31.1}, {"measurement": "IC50", "setting": "Cholinesterase; read-out: IC50", "result": 63.8, "unit": "µM"}]}
{"compound": "COc1ccc(C2C(C#N)=C(NC(=O)CN3CCN(c4ccccc4)CC3)Oc3c2c(=O)oc2ccccc32)cc1", "note": "(configuration not stated)", "values": [{"measurement": "inhibition", "setting": "[3]", "result": 18, "unit": "%"}, {"measurement": "Activity", "setting": "PC-12", "result": 84.7, "unit": "%"}, {"measurement": "IC50", "setting": "Acetylcholinesterase [1]; read-out: IC50", "result": 1.12, "unit": "µM"}, {"measurement": "Ratio IC50", "setting": "[2]", "result": 40.8}, {"measurement": "IC50", "setting": "Cholinesterase; read-out: IC50", "result": 45.7, "unit": "µM"}, {"measurement": "Ki", "setting": "Acetylcholinesterase [4]", "result": 3.19, "unit": "µM"}]}
{"compound": "N#CC1=C(NC(=O)CN2CCOCC2)Oc2c(c(=O)oc3ccccc23)C1c1ccc(F)cc1", "note": "(configuration not stated)", "values": [{"measurement": "IC50", "setting": "Acetylcholinesterase [1]; read-out: IC50", "result": "> 100", "unit": "µM"}, {"measurement": "IC50", "setting": "Cholinesterase; read-out: IC50", "result": "> 100", "unit": "µM"}]}
{"compound": "COc1ccc(C2C(C#N)=C(NC(=O)CN3CCOCC3)Oc3c2c(=O)oc2ccccc32)c(OC)c1", "note": "(configuration not stated)", "values": [{"measurement": "IC50", "setting": "Acetylcholinesterase [1]; read-out: IC50", "result": 25.6, "unit": "µM"}, {"measurement": "IC50", "setting": "Cholinesterase; read-out: IC50", "result": "> 100", "unit": "µM"}]}
{"compound": "Cc1ccc(C2C(C#N)=C(NC(=O)CN3CCN(c4ccccc4)CC3)Oc3c2c(=O)oc2ccccc32)c(C)c1", "note": "(configuration not stated)", "values": [{"measurement": "IC50", "setting": "Acetylcholinesterase [1]; read-out: IC50", "result": 32.9, "unit": "µM"}, {"measurement": "IC50", "setting": "Cholinesterase; read-out: IC50", "result": "> 100", "unit": "µM"}]}
{"compound": "COc1ccc(C2C(C#N)=C(NC(=O)CN3CCN(c4ccccc4)CC3)Oc3c2c(=O)oc2ccccc32)c(OC)c1", "note": "(configuration not stated)", "values": [{"measurement": "IC50", "setting": "Acetylcholinesterase [1]; read-out: IC50", "result": 31.4, "unit": "µM"}, {"measurement": "IC50", "setting": "Cholinesterase; read-out: IC50", "result": "> 100", "unit": "µM"}]}
{"compound": "COc1ccc(C2C(C#N)=C(NC(=O)CN3CCN(c4ccccc4)CC3)Oc3c2c(=O)oc2ccccc32)cc1OC", "note": "(configuration not stated)", "values": [{"measurement": "Activity", "setting": "PC-12", "result": 76, "unit": "%"}, {"measurement": "IC50", "setting": "Acetylcholinesterase [1]; read-out: IC50", "result": 1.42, "unit": "µM"}, {"measurement": "Ratio IC50", "setting": "[2]", "result": 41}, {"measurement": "IC50", "setting": "Cholinesterase; read-out: IC50", "result": 58.2, "unit": "µM"}]}
{"compound": "N#CC1=C(NC(=O)CN2CCN(c3ccccc3)CC2)Oc2c(c(=O)oc3ccccc23)C1c1ccc(Cl)cc1", "note": "(configuration not stated)", "values": [{"measurement": "Activity", "setting": "PC-12", "result": 75, "unit": "%"}, {"measurement": "IC50", "setting": "Acetylcholinesterase [1]; read-out: IC50", "result": 6.33, "unit": "µM"}, {"measurement": "Ratio IC50", "setting": "[2]", "result": 14.1}, {"measurement": "IC50", "setting": "Cholinesterase; read-out: IC50", "result": 89.2, "unit": "µM"}]}
{"compound": "N#CC1=C(NC(=O)CN2CCOCC2)Oc2c(c(=O)oc3ccccc23)C1c1ccccc1", "note": "(configuration not stated)", "values": [{"measurement": "IC50", "setting": "Acetylcholinesterase [1]; read-out: IC50", "result": 23.9, "unit": "µM"}, {"measurement": "Ratio IC50", "setting": "[2]", "result": 3.7}, {"measurement": "IC50", "setting": "Cholinesterase; read-out: IC50", "result": 88.4, "unit": "µM"}]}
{"compound": "N#CC1=C(NC(=O)CN2CCOCC2)Oc2c(c(=O)oc3ccccc23)C1c1ccc(Cl)cc1", "note": "(configuration not stated)", "values": [{"measurement": "IC50", "setting": "Acetylcholinesterase [1]; read-out: IC50", "result": 14.6, "unit": "µM"}, {"measurement": "Ratio IC50", "setting": "[2]", "result": 6.3}, {"measurement": "IC50", "setting": "Cholinesterase; read-out: IC50", "result": 91.5, "unit": "µM"}]}
{"compound": "N#CC1=C(NC(=O)CN2CCN(c3ccccc3)CC2)Oc2c(c(=O)oc3ccccc23)C1c1ccc(F)cc1", "note": "(configuration not stated)", "values": [{"measurement": "IC50", "setting": "Acetylcholinesterase [1]", "result": "Nd(Insoluble)"}, {"measurement": "IC50", "setting": "Cholinesterase", "result": "Nd(Insoluble)"}]}
{"compound": "N#CC1=C(NC(=O)CN2CCOCC2)Oc2c(c(=O)oc3ccccc23)C1c1ccc([N+](=O)[O-])cc1", "note": "(configuration not stated)", "values": [{"measurement": "IC50", "setting": "Acetylcholinesterase [1]; read-out: IC50", "result": "> 100", "unit": "µM"}, {"measurement": "IC50", "setting": "Cholinesterase; read-out: IC50", "result": "> 100", "unit": "µM"}]}
